Assay results: ChEMBL document CHEMBL1123009, “Synthesis and antimicrobial evaluation of bicyclomycin analogues” (1985)
≈ marks a conversion by molar mass, not a printed value. Blank lines part the entries; values can stand above or below the compound they belong to. Calls of active or inactive are those of the source. The calls are words filed in the database; no cut-off is given here.

What was measured:
Staphylococcus aureus [1] = experiment: Minimum inhibitory concentration against gram-negative and gram-positive bacterial strains; Not active.; format: functional, organism-based
Staphylococcus aureus [2] = experiment: Compound was evaluated for its antibiotic activity against gram-negative and gram-positive bacterial strains; NA = not active; format: functional, organism-based
[3] = test system: Acinetobacter calcoaceticus; experiment: Minimum inhibitory concentration against Acinetobacter calcoaceticus PCl3; format: functional
Priestia megaterium = experiment: Minimum inhibitory concentration against Bacillus megaterium 164; format: functional
Bacillus subtilis = experiment: Minimum inhibitory concentration against Bacillus subtilis 558; format: functional
Bacillus [4] = experiment: Minimum inhibitory concentration against Bacillus sp. E; format: functional
Candida albicans = experiment: Minimum inhibitory concentration against yeast Candida albicans 155; format: functional
Escherichia coli = experiment: Minimum inhibitory concentration against Escherichia coli 94; format: functional
Klebsiella pneumoniae = experiment: Minimum inhibitory concentration against Klebsiella pneumoniae 369; format: functional
Micrococcus luteus = experiment: Minimum inhibitory concentration against Micrococcus luteus PCI; format: functional
Mycolicibacterium phlei = experiment: Minimum inhibitory concentration against Mycobacterium phlei 78; format: functional
Penicillium digitatum = experiment: Minimum inhibitory concentration against Penicillium digitatum 0184; format: functional
Paecilomyces variotii = experiment: Minimum inhibitory concentration against Paecilomyces varioti M16; format: functional
Pseudomonas aeruginosa = experiment: Minimum inhibitory concentration against Pseudomonas aeruginosa 56; format: functional
Proteus vulgaris = experiment: Minimum inhibitory concentration against Proteus vulgaris 101N; format: functional
Serratia marcescens = experiment: Minimum inhibitory concentration against Serratia marcescens SM; format: functional
Saccharomyces cerevisiae = experiment: Minimum inhibitory concentration against Saccharomyces cerevisiae 90; format: functional
Serratia = experiment: Minimum inhibitory concentration against Serratia sp.101; format: functional
Staphylococcus aureus [5] = experiment: Minimum inhibitory concentration against Staphylococcus aureus 82; format: functional
Enterococcus faecium = experiment: Minimum inhibitory concentration against Streptococcus faecium ATCC 8043; format: functional
Streptomyces sp. = experiment: Minimum inhibitory concentration against Gram positive filament Streptomyces cellulose 097; format: functional
Bacillus [6] = experiment: Minimum inhibitory concentration against Bacillus sp. TA; format: functional

MIC (Staphylococcus aureus [1]): inactive
Structure (SMILES): O=C1C2OCCC[C@@](O)(C(=O)N2Cc2ccccc2)N1Cc1ccccc1

MIC (Staphylococcus aureus [2]): inactive
Structure (SMILES): C=CC1COC2NC(=O)[C@H]1NC2=O (some centres not stated)

MIC [3]: 1000 µg/mL (≈ 3310 µM)
MIC (Priestia megaterium): > 1000 µg/mL
MIC (Bacillus subtilis): > 1000 µg/mL
MIC (Bacillus [4]): > 1000 µg/mL
MIC (Candida albicans): > 1000 µg/mL
MIC (Escherichia coli): 250 µg/mL (≈ 827 µM)
MIC (Klebsiella pneumoniae): 250 µg/mL (≈ 827 µM)
MIC (Micrococcus luteus): > 1000 µg/mL
MIC (Mycolicibacterium phlei): 1000 µg/mL (≈ 3310 µM)
MIC (Penicillium digitatum): > 1000 µg/mL
MIC (Paecilomyces variotii): > 1000 µg/mL
MIC (Pseudomonas aeruginosa): > 1000 µg/mL
MIC (Proteus vulgaris): > 1000 µg/mL
MIC (Serratia marcescens): > 1000 µg/mL
MIC (Saccharomyces cerevisiae): > 1000 µg/mL
MIC (Serratia): > 1000 µg/mL
MIC (Staphylococcus aureus [5]): > 1000 µg/mL
MIC (Enterococcus faecium): > 1000 µg/mL
MIC (Streptomyces sp.): 500 µg/mL (≈ 1650 µM)
MIC (Bacillus [6]): > 1000 µg/mL
Structure (SMILES): C=C1CCO[C@]2([C@@H](O)[C@@](C)(O)CO)NC(=O)[C@@]1(O)NC2=O [BICOZAMYCIN]

MIC (Staphylococcus aureus [1]): inactive
Structure (SMILES): O=C1N[C@@]2(O)CCCOC1NC2=O

MIC (Staphylococcus aureus [1]): inactive
Structure (SMILES): C=C1CCOC2NC(=O)[C@H]1NC2=O

MIC (Staphylococcus aureus [1]): inactive
Structure (SMILES): C=CC1COC2C(=O)N(Cc3ccccc3)[C@@H]1C(=O)N2Cc1ccccc1 (some centres not stated)

MIC (Staphylococcus aureus [1]): inactive
Structure (SMILES): C[C@](O)(CO)[C@H](O)C12NC(=O)[C@](O)(CCCO1)NC2=O

MIC (Staphylococcus aureus [2]): inactive
Structure (SMILES): CN1C(=O)[C@@H]2CCOC1C(=O)N2C

MIC (Staphylococcus aureus [1]): inactive
Structure (SMILES): C=C1CCOC2([C@@H](O)[C@@](C)(O)CO)NC(=O)[C@@]1(O)NC2=O

MIC (Staphylococcus aureus [2]): inactive
Structure (SMILES): CSC12OCCC[C@@](C)(C(=O)N1C)N(C)C2=O

MIC (Staphylococcus aureus [1]): inactive
Structure (SMILES): COc1ccc(N2C(=O)[C@@H]3CCCOC2C(=O)N3c2ccc(OC)cc2)cc1

MIC (Staphylococcus aureus [1]): inactive
Structure (SMILES): COc1ccc(CN2C(=O)[C@@H]3CCCOC2C(=O)N3Cc2ccc(OC)cc2)cc1

MIC (Staphylococcus aureus [1]): inactive
Structure (SMILES): C[C@](O)(CO)[C@H](O)C12NC(=O)[C@H](CCCO1)NC2=O

MIC (Staphylococcus aureus [1]): inactive
Structure (SMILES): C=C1CCOC2C(=O)N(Cc3ccccc3)[C@@H]1C(=O)N2Cc1ccccc1

MIC (Staphylococcus aureus [1]): inactive
Structure (SMILES): CN1C(=O)[C@]2(C(O)c3ccccc3)CCCOC1C(=O)N2C (some centres not stated)

MIC (Staphylococcus aureus [2]): inactive
Structure (SMILES): C=C1CCOC2NC(=O)[C@@]1(O)NC2=O

MIC (Staphylococcus aureus [1]): inactive
Structure (SMILES): CS[C@@]12CCCOC(C(=O)N1C)N(C)C2=O

MIC (Staphylococcus aureus [1]): inactive
Structure (SMILES): CN1C(=O)[C@@H]2CCCOC1C(=O)N2C

MIC (Staphylococcus aureus [1]): inactive
Structure (SMILES): O=C1[C@@H]2CCCOC(C(=O)N2Cc2ccccc2)N1Cc1ccccc1

MIC [3]: > 1000 µg/mL
MIC (Priestia megaterium): 500 µg/mL (≈ 1320 µM)
MIC (Bacillus subtilis): 250 µg/mL (≈ 661 µM)
MIC (Bacillus [4]): > 1000 µg/mL
MIC (Candida albicans): > 1000 µg/mL
MIC (Escherichia coli): > 1000 µg/mL
MIC (Klebsiella pneumoniae): > 1000 µg/mL
MIC (Micrococcus luteus): 500 µg/mL (≈ 1320 µM)
MIC (Mycolicibacterium phlei): > 1000 µg/mL
MIC (Penicillium digitatum): > 1000 µg/mL
MIC (Paecilomyces variotii): > 1000 µg/mL
MIC (Pseudomonas aeruginosa): > 1000 µg/mL
MIC (Proteus vulgaris): > 1000 µg/mL
MIC (Serratia marcescens): > 1000 µg/mL
MIC (Saccharomyces cerevisiae): > 1000 µg/mL
MIC (Serratia): > 1000 µg/mL
MIC (Staphylococcus aureus [5]): > 1000 µg/mL
MIC (Enterococcus faecium): > 1000 µg/mL
MIC (Streptomyces sp.): 500 µg/mL (≈ 1320 µM)
MIC (Bacillus [6]): 250 µg/mL (≈ 661 µM)
Structure (SMILES): C=C1CCOC2C(=O)N(Cc3ccccc3)[C@]1(O)C(=O)N2Cc1ccccc1

MIC (Staphylococcus aureus [1]): inactive
Structure (SMILES): C=C1COC2C(=O)N(Cc3ccccc3)[C@@H]1C(=O)N2Cc1ccccc1

MIC (Staphylococcus aureus [1]): inactive
Structure (SMILES): O=C1[C@@H]2[C@H](CO)COC(C(=O)N2Cc2ccccc2)N1Cc1ccccc1

MIC (Staphylococcus aureus [2]): inactive
Structure (SMILES): CN1C(=O)[C@]2(C(=O)c3ccccc3)CCOC1C(=O)N2C

MIC (Staphylococcus aureus [1]): inactive
Structure (SMILES): O=C1N[C@H]2CCCOC1NC2=O
